According to patent US8759535B2, “Substituted fused imidazole derivatives, pharmaceutical compositions, and methods of use thereof” (High Point Pharmaceuticals, LLC, priority 2010, dated 2014):
Where a name gives a salt, the structure may show the parent alone.

Test system: HMOX1
Assay: HMOX1 Protein Assay (immunostaining of HO-1 in NHLF cells, GE InCell 1000)
Assay type: cell-based
Conditions: Homo sapiens, fold change above DMSO treated cells, 16 h; for fold induction at 5 µM: 5 μM compound; for fold induction at 3 µM: 3 μM compound (asterisk)
Summary of the method: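 NHLF cells seeded overnight in FGM-2, then exposed to compound or DMSO vehicle for 16 h, fixed, and immunostained for HO-1 with Hoechst nuclear counterstain; imaged on InCell 1000. Values are fold change over DMSO-treated cells, generally at 5 μM (0.8% DMSO), with asterisked entries at 3 μM.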

Compound | fold induction at 5 µM | fold induction at 3 µM
Cn1c(Nc2nc3ccc(OC(F)(F)F)cc3s2)nc2cc(C(=O)NCCNC(=O)CO)ccc21 [Example 325, 1-Methyl-2-(6-trifluoromethoxy-benzothiazol-2-ylamino)-1H-benzoimidazole-5-carboxylic acid [2-(2-hydroxy-acetylamino)-ethyl]-amide] | 32.4 | –
CN(CCO)C(=O)CNC(=O)c1ccc2c(c1)nc(Nc1nc3ccc(Cl)cc3s1)n2C [Example 391, 2-(6-Chloro-benzothiazol-2-ylamino)-1-methyl-1H-benzoimidazole-5-carboxylic acid {[(2-hydroxy-ethyl)-methyl-carbamoyl]-methyl}-amide] | 38.6 | –
Cn1c(Nc2nc3ccc(OC(F)(F)F)cc3s2)nc2cc(C(=O)N3CCC(CCCO)CC3)ccc21 [Example 307, [4-(3-Hydroxy-propyl)-piperidin-1-yl]-[1-methyl-2-(6-trifluoromethoxy-benzothiazol-2-ylamino)-1H benzoimidazol-5-yl]-methanone] | 31.5 | –
CN(C)C(=O)CNC(=O)c1cnc2c(c1)nc(Nc1nc3ccc(OC(F)(F)F)cc3s1)n2C [Example 74, 3-Methyl-2-(6-trifluoromethoxy-benzothiazol-2-ylamino)-3H-imidazo[4,5-b]pyridine-6-carboxylic acid dimethylcarbamoylmethyl-amide] | 11.1 | –
Cn1c(Nc2nc3ccc(Cl)cc3s2)nc2cc(C(=O)NCC(=O)N[C@@H]3CCCNC3)ccc21 [Example 387, 2-(6-Chloro-benzothiazol-2-ylamino)-1-methyl-1H-benzoimidazole-5-carboxylic acid ((R)-piperidin-3-ylcarbamoylmethyl)-amide hydrochloride] | 19.9 | –
CN(C)C(=O)CNC(=O)c1ccc2c(c1)nc(Nc1nc3ccc(OC(F)(F)F)cc3s1)n2C [Example 80, 1-Methyl-2-(6-trifluoromethoxy-benzothiazol-2-ylamino)-1H-benzoimidazole-5-carboxylic acid dimethylcarbamoylmethyl-amide] | 23.2 | –
COCCNC(=O)c1cc2nc(Nc3nc4ccc(OC(F)(F)F)cc4s3)n(C)c2cc1F [Example 39, 6-Fluoro-1-methyl-2-(6-trifluoromethoxy-benzothiazol-2-ylamino)-1H-benzoimidazole-5-carboxylic acid (2-methoxy-ethyl)-amide] | 18.2 | –
Cn1c(Nc2nc3ccc(OC(F)(F)F)cc3s2)nc2cc(C(=O)NCCC(=O)OC(C)(C)C)ccc21 [Example 136, 3-{[1-Methyl-2-(6-trifluoromethoxy-benzothiazol-2-ylamino)-1H-benzimidazole-5-carbonyl]-amino}-propionic acid tert-butyl ester] | 5.7 | –
Cn1c(Nc2nc3ccc(Cl)cc3s2)nc2cc(C(=O)NCC(=O)N3CCS(=O)(=O)CC3)ccc21 [Example 424, 2-(6-Chloro-benzothiazol-2-ylamino)-1-methyl-1H-benzoimidazole-5-carboxylic acid [2-(1,1-dioxo-thiomorpholin-4-yl)-2-oxo-ethyl]-amide] | 24.9 | –
Cn1c(Nc2nc3ccc(Cl)cc3s2)nc2cc(C(=O)NCC(C)(C)CO)ccc21 [Example 218, 2-(6-Chloro-benzothiazol-2-ylamino)-1-methyl-1H-benzoimidazole-5-carboxylic acid (3-hydroxy-2,2-dimethyl-propyl)-amide] | 39.2 | –
Cn1c(Nc2nc3ccc(OC(F)(F)F)cc3s2)nc2cc(C(=O)N[C@@H]3C[C@H](CO)[C@@H](O)[C@H]3O)ccc21 [Example 282, 1-Methyl-2-(6-trifluoromethoxy-benzothiazol-2-ylamino)-1H-benzoimidazole-5-carboxylic acid ((1R,2S,3R,4R)-2,3-dihydroxy-4-hydroxymethyl-cyclopentyl)-amide] | 51.7 | –
Cn1c(Nc2nc3ccc(Cl)cc3s2)nc2cc(C(=O)NCCCO)ccc21 [Example 214, 2-(6-Chloro-benzothiazol-2-ylamino)-1-methyl-1H-benzoimidazole-5-carboxylic acid (3-hydroxy-propyl)-amide] | 42.4 | –
CCn1c(Nc2nc3ccc(C(F)(F)F)cc3s2)nc2cc(C(=O)NCC(C)(C)OC)ccc21 [Example 184, 1-Ethyl-2-(6-trifluoromethyl-benzothiazol-2-ylamino)-1H-benzoimidazole-5-carboxylic acid (2-methoxy-2-methyl-propyl)-amide] | 9.5 | –
CCOCCNC(=O)c1ccc2c(c1)nc(Nc1nc3ccc(OC(F)(F)F)cc3s1)n2CC [Example 157, 1-Ethyl-2-(6-trifluoromethoxy-benzothiazol-2-ylamino)-1H-benzoimidazole-5-carboxylic acid (2-ethoxy-ethyl)-amide] | 22.1 | –
Cn1c(Nc2nc3ccc(OC(F)(F)F)cc3s2)nc2cc(C(=O)NCC(=O)N3CCCC3)ccc21 [Example 141, 1-Methyl-2-(6-trifluoromethoxy-benzothiazol-2-ylamino)-1H-benzimidazole-5-carboxylic acid (2-oxo-2-pyrrolidin-1-yl-ethyl)-amide] | 23.1 | –
Cn1c(Nc2nc3ccc(OC(F)(F)F)cc3s2)nc2cc(C(=O)NCCN3CCNC3=O)ccc21 [Example 330, 1-Methyl-2-(6-trifluoromethoxy-benzothiazol-2-ylamino)-1H-benzoimidazole-5-carboxylic acid [2-(2-oxo-imidazolidin-1-yl)-ethyl]-amide] | 37.7 | –
C[C@@H](NC(=O)c1ccc2c(c1)nc(Nc1nc3ccc(Cl)cc3s1)n2C)C(=O)N(C)C [Example 467, 2-(6-Chloro-benzothiazol-2-ylamino)-1-methyl-1H-benzoimidazole-5-carboxylic acid ((R)-1-dimethylcarbamoyl-ethyl)-amide] | – | 22.3
Cn1c(Nc2nc3ccc(OC(F)(F)F)cc3s2)nc2cc(C(=O)N3CCN(CCO)CC3)ccc21 [Example 305, [4-(2-Hydroxy-ethyl)-piperazin-1-yl]-[1-methyl-2-(6-trifluoromethoxy-benzothiazol-2-ylamino)-1H-benzoimidazol-5-yl]-methanone] | 41.7 | –
Cn1c(Nc2nc3ccc(C(F)(F)F)cc3s2)nc2cc(C(=O)NC[C@H]3CC[C@H](O)CC3)ccc21 [Example 234, 1-Methyl-2-(6-trifluoromethyl-benzothiazol-2-ylamino)-1H-benzoimidazole-5-carboxylic acid (trans-4-hydroxy-cyclohexylmethyl)-amide] | – | 30.9
Cn1c(Nc2nc3ccc(OC(F)(F)F)cc3s2)nc2cc(C(=O)NC3CCCNC3)ccc21 (centres unmarked) [Example 95, 1-Methyl-2-(6-trifluoromethoxy-benzothiazol-2-ylamino)-1H-benzoimidazole-5-carboxylic acid piperidin-3-ylamide hydrochloride] | 11.2 | –
Cn1c(Nc2nc3ccc(S(C)(=O)=O)cc3s2)nc2cc(C(=O)NCCS(C)(=O)=O)ccc21 [Example 131, 2-(6-Methanesulfonyl-benzothiazol-2-ylamino)-1-methyl-1H-benzimidazole-5-carboxylic acid (2-methylsulfonyl-ethyl)-amide] | 6.8 | –
C[C@H](NC(=O)c1ccc2c(c1)nc(Nc1nc3ccc(Cl)cc3s1)n2C)C(=O)N1CCN(C)CC1 [Example 464, 2-(6-Chloro-benzothiazol-2-ylamino)-1-methyl-1H-benzoimidazole-5-carboxylic acid [(S)-1-methyl-2-(4-methyl-piperazin-1-yl)-2-oxo-ethyl]-amide] | – | 27.2
CCS(=O)(=O)CCNC(=O)c1ccc2c(c1)nc(Nc1nc3ccc(Cl)cc3s1)n2C [Example 277, 2-(6-Chloro-benzothiazol-2-ylamino)-1-methyl-1H-benzoimidazole-5-carboxylic acid (2-ethanesulfonyl-ethyl)-amide] | – | 38.3
Cn1c(Nc2nc3ccc(Cl)cc3s2)nc2cc(C(=O)NCC(=O)N3CC[C@H](O)C3)ccc21 [Example 401, 2-(6-Chloro-benzothiazol-2-ylamino)-1-methyl-1H-benzoimidazole-5-carboxylic acid [2-((S)-3-hydroxy-pyrrolidin-1-yl)-2-oxo-ethyl]-amide] | – | 27
CO[C@@H]1CCCN(C(=O)CNC(=O)c2ccc3c(c2)nc(Nc2nc4ccc(C(F)(F)F)cc4s2)n3C)C1 [Example 446, 1-Methyl-2-(6-trifluoromethyl-benzothiazol-2-ylamino)-1H-benzoimidazole-5-carboxylic acid [2-((R)-3-methoxy-piperidin-1-yl)-2-oxo-ethyl]-amide] | – | 31.3
C[C@H](NC(=O)c1ccc2c(c1)nc(Nc1nc3ccc(OC(F)(F)F)cc3s1)n2C)C(=O)O [Example 146, (S)-2-{[1-Methyl-2-(6-trifluoromethoxy-benzothiazol-2-ylamino)-1H-benzoimidazole-5-carbonyl]-amino}-propionic acid] | 3.7 | –
Cn1c(Nc2nc3ccc(OC(F)(F)F)cc3s2)nc2cc(C(=O)NCCc3ccc(O)cc3)ccc21 [Example 251, 1-Methyl-2-(6-trifluoromethoxy-benzothiazol-2-ylamino)-1H-benzoimidazole-5-carboxylic acid [2-(4-hydroxy-phenyl)-ethyl]-amide] | 29.6 | –
CN(C)[C@@H]1CCN(C(=O)CNC(=O)c2ccc3c(c2)nc(Nc2nc4ccc(Cl)cc4s2)n3C)C1 [Example 417, 2-(6-Chloro-benzothiazol-2-ylamino)-1-methyl-1H-benzoimidazole-5-carboxylic acid [2-((R)-3-dimethylamino-pyrrolidin-1-yl)-2-oxo-ethyl]-amide] | 62.8 | –
COCCNC(=O)c1ccc2c(c1)nc(Nc1nc3cc(OC(F)(F)F)ccc3s1)n2C [Example 116, 1-Methyl-2-(5-trifluoromethoxy-benzothiazol-2-ylamino)-1H-benzimidazole-5-carboxylic acid (2-methoxy-ethyl)-amide] | 22.3 | –
